Consider six compounds from ChEMBL document CHEMBL5576092, “Iron(III) Binding Properties of PF1140, a Fungal N-Hydroxypyridone, and Activity against Mycoplasma genitalium” (J Nat Prod, 2024).

SMILES strings stand for the structures. ≈ marks a conversion by molar mass, not a printed value. Calls of active or inactive are those of the source. No cut-off for these calls is given here. Some results are limits rather than exact numbers.

The subject of data set [1] is Mycoplasma genitalium. Put plainly: Antibacterial activity against Mycoplasma genitalium G37 assessed as bacterial growth inhibition incubated for 7 days by microbroth dilution assay. In kind it is functional. Particulars: Mycoplasmoides genitalium, G37, 168 h; time 7 day.
In data set [2] the test system is Mycoplasma genitalium. Put plainly: Antibacterial activity against Mycoplasma genitalium G37 assessed as bacterial growth inhibition at 0.29 to 0.58 uM incubated for 7 days by time-kill assay. The data set is classed as functional, organism-based. Particulars: Mycoplasmoides genitalium, dose 0.29-0.58 µM, time 7.0 day.
The nature of data set [3]: Metal chelating activity assessed as compound-calcium complex formation by UV-Vis spectrophotometric analysis.
Data set [4] can be described thus: Selectivity index, ratio of IC50 for human HepG2 cells to IC50 for Mycoplasma genitalium G37. The data set is classed as toxicity. Particulars: read-out: Ratio IC50.
For data set [5], the system named is Mycoplasma genitalium. Put plainly: Antibacterial activity against Mycoplasma genitalium at >0.3 uM. In kind it is functional, organism-based. Particulars: Mycoplasmoides genitalium.
Data set [6] concerns Mycoplasma genitalium. Put plainly: Antibacterial activity against Mycoplasma genitalium Sea-2 assessed as bacterial growth inhibition incubated for 7 days by microbroth dilution assay. Particulars: Mycoplasmoides genitalium, Sea-2, 168 h; time 7 day. In kind it is functional.
Data set [7] in a line: Metal chelating activity assessed as compound-Cobalt complex formation by UV-Vis spectrophotometric analysis.
A short description of data set [8]: Selectivity index, ratio of IC50 for human HeLa cells to IC50 for Mycoplasma genitalium G37. The data set is classed as toxicity. Particulars: read-out: Ratio IC50.
Data set [9] in a line: Metal chelating activity assessed as compound-Nickel complex formation by UV-Vis spectrophotometric analysis.
Data set [10] in a line: Metal chelating activity assessed as compound-manganese complex formation by UV-Vis spectrophotometric analysis.
In data set [11] the test system is Mycoplasma genitalium. Put plainly: Antibacterial activity against Mycoplasma genitalium at 0.28 to 1.12 measured after >1 month. The data set is classed as functional, organism-based. Particulars: Mycoplasmoides genitalium; time > 1.0 months.
Data set [12] deals with Mycoplasma genitalium. The data set is described as follows: Antibacterial activity against Mycoplasma genitalium Sea-1 assessed as bacterial growth inhibition by qPCR analysis. Particulars: Mycoplasmoides genitalium. The data set is classed as functional, organism-based.
For data set [13], the system named is Mycoplasma genitalium. Put plainly: Antibacterial activity against Mycoplasma genitalium assessed as bacterial growth inhibition in SP-4 broth medium supplemented with DPP and ferric chloride at 0.64 uM measured after 2 hrs by absorbance based analysis. In kind it is functional, organism-based. Particulars: Mycoplasmoides genitalium.
The test system of data set [14] is Mycoplasma genitalium. The data set is described as follows: Potentiation of hydrogen peroxide sensitivity in Mycoplasma genitalium assessed as reduction in bactericidal concentration of hydrogen peroxide at 0.32 uM measured after 7 days by checkerboard technique (reference value: 7 mM). The data set is classed as functional, Mycoplasmoides genitalium. Particulars: time 7 day.

Data set [15] deals with Mycoplasma genitalium. The data set is described as follows: Antibacterial activity against Mycoplasma genitalium G37 assessed as bacterial growth inhibition by qPCR analysis. In kind it is functional, organism-based. Particulars: Mycoplasmoides genitalium.
The subject of data set [16] is Mycoplasma genitalium. Put plainly: Antibacterial activity against Mycoplasma genitalium M2300 assessed as bacterial growth inhibition incubated for 7 days by microbroth dilution assay. In kind it is functional. Particulars: Mycoplasmoides genitalium, M2300, 168 h; time 7 day.
For data set [17], the system named is Mycoplasma genitalium. The data set is described as follows: Antibacterial activity against Mycoplasma genitalium Sea-2 assessed as bacterial growth inhibition by qPCR analysis. In kind it is functional, organism-based. Particulars: Mycoplasmoides genitalium.
The nature of data set [18]: Metal chelating activity assessed as compound-copper complex formation by UV-Vis spectrophotometric analysis.
The test system of data set [19] is Mycoplasma genitalium. The data set is described as follows: Antibacterial activity against Mycoplasma genitalium G37 assessed as bacterial growth inhibition at 1.16 uM incubated for 7 days by time-kill assay relative to control. Also on record: scale not given: the % may be the effect or the level left. In kind it is functional, Mycoplasmoides genitalium. Particulars: time 7 day.

Data set [20] relates to Mycoplasma genitalium. The data set is described as follows: Bacteriostatic activity against Mycoplasma genitalium G37 assessed as bacterial growth inhibition at 4 times MIC measured after 7 days by time-kill assay relative to control. The data set is classed as functional, Mycoplasmoides genitalium. Also noted: scale not given: the % may be the effect or the level left. Particulars: time 7 day.

Data set [21] is described as follows: Selectivity index, ratio of IC50 for African green monkey Vero cells to IC50 for Mycoplasma genitalium G37. The data set is classed as toxicity. Particulars: read-out: Ratio IC50.
Data set [22] in a line: Metal chelating activity assessed as compound-Fe3+ complex formation by UV-Vis spectrophotometric analysis.
A short description of data set [23]: Metal chelating activity assessed as compound-zinc complex formation by UV-Vis spectrophotometric analysis.
The subject of data set [24] is Mycoplasma genitalium. The data set is described as follows: Antibacterial activity against Mycoplasma genitalium assessed as bacterial growth inhibition in SP-4 broth medium supplemented with TPEN and zinc chloride at 0.64 uM measured after 2 hrs by absorbance based analysis. In kind it is functional, organism-based. Particulars: Mycoplasmoides genitalium.
Data set [25] concerns Mycoplasma genitalium. Put plainly: Antibacterial activity against Mycoplasma genitalium M2282 assessed as bacterial growth inhibition incubated for 7 days by microbroth dilution assay. The data set is classed as functional. Particulars: Mycoplasmoides genitalium, M2282, 168 h; time 7 day.
In data set [26] the test system is Mycoplasma genitalium. The data set is described as follows: Antibacterial activity against Mycoplasma genitalium assessed as bacterial growth inhibition in SP-4 broth medium supplemented with DPP at 0.08 to 0.64 uM measured after 2 hrs by absorbance based analysis. Particulars: Mycoplasmoides genitalium, dose 0.08-0.64 µM. The data set is classed as functional, organism-based.

A short description of data set [27]: Metal chelating activity assessed as compound-magnesium complex formation by UV-Vis spectrophotometric analysis.
Data set [28] is described as follows: Selectivity index, ratio of IC50 for human WIL-2N cells to IC50 for Mycoplasma genitalium G37. In kind it is toxicity. Particulars: read-out: Ratio IC50.
The test system of data set [29] is Mycoplasma genitalium. The data set is described as follows: Antibacterial activity against Mycoplasma genitalium assessed as bacterial growth inhibition in SP-4 broth medium supplemented with TPEN at 0.64 uM measured after 2 hrs by absorbance based analysis. In kind it is functional, organism-based. Particulars: Mycoplasmoides genitalium.
Data set [30] deals with Mycoplasma genitalium. The data set is described as follows: Antibacterial activity against Mycoplasma genitalium Sea-1 assessed as bacterial growth inhibition incubated for 7 days by microbroth dilution assay. The data set is classed as functional. Particulars: Mycoplasmoides genitalium, Sea-1, 168 h; time 7 day.

With `C[C@@H]1C[C@H](C)[C@H]2c3c(cc[nH]c3=O)O[C@H](C)[C@@]2(C)C1`, the MIC with Mycoplasma genitalium [1] was above 80 µM.
Same read-out and setting: in the case of `C[C@@H]1C[C@H](C)[C@@H](c2c(O)cc[nH]c2=O)[C@H](C)[C@@](C)(O)C1` [DEOXYAKANTHOMYCIN] it was above 80 µM; in that of `COn1ccc2c(c1=O)[C@@H]1[C@@H](C)C[C@@H](C)C[C@]1(C)[C@@H](C)O2`, above 80 µM; in that of `COn1ccc(O)c([C@@H]2[C@@H](C)C[C@@H](C)C[C@](C)(O)[C@H]2C)c1=O`, above 80 µM.
As for `C[C@@H]1C[C@H](C)[C@H]2c3c(ccn(O)c3=O)O[C@H](C)[C@@]2(C)C1`, the outcome (in the data set on Mycoplasma genitalium [2]; with Mycoplasma genitalium [13]; in data set [22]; with Mycoplasma genitalium [24]) was Active. Further, the result (in data set [3]; with Mycoplasma genitalium [5]; in data set [7]; in data set [9]; in data set [10]; in the data set with Mycoplasma genitalium [11]) was inactive. In addition, the result (in data set [18]; in [23]; with Mycoplasma genitalium [26]; in data set [27]; in the data set with Mycoplasma genitalium [29]) was inactive. In addition, the selectivity ratio in data set [4], in data set [8], in data set [21] and in [28] was above 32 throughout. Further, the MIC was found to be 0.32 µM (≈ 0.0888 µg/mL) in the data set on Mycoplasma genitalium [6]; 0.16 µM (≈ 0.0444 µg/mL) in the data set with Mycoplasma genitalium [16]; 0.16 µM (≈ 0.0444 µg/mL) with Mycoplasma genitalium [25]; 0.32 µM (≈ 0.0888 µg/mL) with Mycoplasma genitalium [1]; 0.16 µM (≈ 0.0444 µg/mL) in the data set with Mycoplasma genitalium [30]. The IC50 in the data set with Mycoplasma genitalium [12] was determined as 100 nM; in the data set on Mycoplasma genitalium [15], 90 nM; in the data set with Mycoplasma genitalium [17] it was 60 nM. Also, the IC90 stood at 120 nM with Mycoplasma genitalium [12], 120 nM with Mycoplasma genitalium [15] and 110 nM in the data set on Mycoplasma genitalium [17]. For the same compound, the Activity is 1.8 mM in the data set on Mycoplasma genitalium [14], 84.2% in the data set on Mycoplasma genitalium [19] and above 99.9% in the data set with Mycoplasma genitalium [20].
`C=C[C@H]1C[C@@H](C)C[C@@H](C)[C@@H]1c1c(O)ccn(O)c1=O`: the MIC in the data set on Mycoplasma genitalium [1] was above 95 µM.
